Columns and labels:
[1] = tested on: peroxidized lipid in rat brain homogenate; experiment: Lipoperoxidation inhibitory activity in brain homogenate (TBA method); assay type: biochemical, Wistar male rats; conditions: 30 minutes at 37° C., final conc. 0.3-100 μM, read-out: Anti-lipoperoxidation Activity IC50
Description: Brain homogenate was prepared using Wistar male rats in accordance with the following procedure. […] A polyethylene tube was inserted into the aorta through the left ventricle, and fixed. Brain perfusion was conducted using ice-cooled 50 mM phosphate buffered saline (PBS), pH 7.4, through the tube, and whole brain was extracted. After removal of the cerebellum, the cerebrum was weighed while wet and homogenated by a Teflon homogenizer under ice-cooling, after addition of nine-fold by weight of PBS. The resultant homogenate was centrifuged at 4° C. (2200 r.p.m., 10 minutes), and an aliquot of the supernatant (0.3 ml) was placed in a light-resistant test tube with ground stopper and used for the following test.
To the brain homogenate obtained above were added PBS (0.6 ml) and an ethanol solution (10 μl) containing a predetermined amount of a test compound. Thus, each of the ethanol solutions was prepared so that the final concentration of the compound was 0.3-100 μM. The mixture was allowed to warm for 30 minutes at 37° C. (external bath temperature). […] (2600 r.p.m., 10 minutes). The resultant supernatant was used in the following quantitative analysis.
The aqueous mixture was heated in a boiling-water bath for 60 minutes and cooled rapidly. Distilled water (1.0 ml) and a mixture of pyridine and butanol (1:15) (5.0 ml) were added to the cooled mixture, and the latter was shaken for 30 seconds and centrifuged (3000 r.p.m., 10 minutes). The supernatant was used as a test sample for quantitative analysis of peroxidized lipid as mentioned below.

mice = experiment: Passive avoidance response test (memory-improving activity, cycloheximide-treated mice); assay type: in vivo; conditions: Mus musculus; oral, 15 mice per group, cycloheximide 120 mg/kg s.c., latent time; read-out: Memory-Improving Activity, Minimum Effective Dose
Description: Passive avoidance response test was conducted in mice (15 animals per group) using light-dark differential apparatus of step-down type. The apparatus consisted of a dark room made of black and rigid vinylidene chloride resin [30 cm (depth)×30 cm (width)×31 cm (height)] and a light room, as an adjacent room, made of transparent rigid vinylidene chloride resin. The floor of the light room was set 2 cm higher than the grid surface of the dark room (step down type), and there was a guillotine door between the rooms. The animals were placed in the apparatus and acclimatized before test, and latent time for moving from the light room to the dark room was determined.
The acclimatized animals subcutaneously received 120 mg/kg of cycloheximide (Sigma) dissolved in physiological saline. After 30 minutes of the administration, the animals were placed in the light room. Immediatly after the movement of the animals to the dark room, electric current was applied on the grid (0.5 mA, 3 seconds), which gave the animals "aquired behavior". After 24 hours of the establishment of the aquired behavior, a test compound suspended in 1% tragacanth was administered orally to the animals, which were then returned to the light room. Control animals received only 1% tragacanth. The latent time until an individual animal started to move to the dark room was determined.

Acute toxicity, oral = conditions: rat, in vivo, SD rats, seven-day observation
Description: Compounds of the invention suspended in 1% tragacanth was orally administered to SD rats (both male and female) and mortality (LD50) was determined after seven-day observation.

Compound	IC50 [1] [µM]	minimal effective dose (mice) [mg/kg]	LD50 at 168 h (Acute toxicity, oral) [mg/kg]
COc1ccc(-c2c(C)[nH]c(=O)n2C)cc1 [Compound A, reference compound]	147		
CCCCn1c(-c2ccccc2)c(C)[nH]c1=O [Compound B, reference compound]	> 100		
CCCCCCc1ccc(-c2c(C)[nH]c(=O)n2C)cc1 [Compound No. 1, 1,4-Dimethyl-5-(4'-n-hexylphenyl)-4-imidazolin-2-one]	9	0.3	
CCCCc1ccc(-c2c(C)[nH]c(=O)n2C)cc1 [Compound No. 2, 5-(4'-n-Butylphenyl)-1,4-dimethyl-4-imidazolin-2-one]	10.7	0.1	> 1000
CCCc1ccc(-c2c(C)[nH]c(=O)n2C)cc1 [Compound No. 7]	21.5		
Cc1[nH]c(=O)n(C)c1-c1ccc(C(C)(C)C)cc1 [Compound No. 9]	8.4		
CCCCCCCCCCc1ccc(-c2c(C)[nH]c(=O)n2C)cc1 [Compound No. 12]	7.9	0.3	
CCCCCCCCCCCCc1ccc(-c2c(C)[nH]c(=O)n2C)cc1 [Compound No. 13]	13	3	
Cc1[nH]c(=O)n(C)c1-c1ccc(OCCC(C)C)cc1 [Compound No. 20]	6.6		
CCCCCCOc1ccc(-c2c(C)[nH]c(=O)n2C)cc1 [Compound No. 21]	7.3		
Cc1[nH]c(=O)n(C(C)C)c1-c1ccc(C2CCCCC2)cc1 [Compound No. 77, 5-(4'-Cyclohexylphenyl)-1-isopropyl-4-methyl-4-imidazolin-2-one]	8.3	0.1	
Cc1[nH]c(=O)n(C2CCCCC2)c1-c1ccc(-c2ccccc2)cc1 [Compound No. 93, 1-Cyclohexyl-5-(4-biphenyl)-4-methyl-4-imidazolin-2-one]	10.9	0.1	
CCCCCCCCCCOc1ccc(-c2c(C)[nH]c(=O)n2C2CCCCC2)cc1 [Compound No. 122, 1-cyclohexyl-5-(4'-decyloxyphenyl)-4-methyl-4-imidazolin-2-one]	10.5	0.1	
Cc1[nH]c(=O)n(C2CCCCC2)c1-c1ccc(Oc2ccccc2)cc1 [Compound No. 123, 1-Cyclohexyl-4-methyl-5-(4'-phenoxyphenyl)-4-imidazolin-2-one]	7.9	0.1	
Cc1[nH]c(=O)n(C2CCCCC2)c1-c1ccc(OCc2ccccc2)cc1 [Compound No. 124, 5-(4'-Benzyloxyphenyl)-1-cyclohexyl-4-methyl-4-imidazolin-2-one]	8.3	0.1	
CCCCc1ccc(-c2c(C)[nH]c(=O)n2Cc2ccccc2)cc1 [Compound No. 137, 1-Benzyl-5-(4'-n-butylphenyl)-4-methyl-4-imidazolin-2-one]	12.4	0.1	> 1000
COC1=C(OC)C(=O)C(CCCCCCCCCCO)=C(C)C1=O [Idebenone, reference compound]	17.2		
CCCCc1ccc(-c2c(CC)[nH]c(=O)n2C)cc1 [compound 3]	13.9		
Cc1[nH]c(=O)n(C)c1-c1ccc(CC(C)C)cc1 [compound 5]	7.8	30	
CCCCCc1ccc(-c2c(C)[nH]c(=O)n2C)cc1 [compound 6]	5.9		

Compound	IC50 [1] [µM]	minimal effective dose (mice) [mg/kg]	LD50 at 168 h (Acute toxicity, oral) [mg/kg]
CCCCCCCc1ccc(-c2c(C)[nH]c(=O)n2C)cc1 [compound 10]	8.4	30	
CCCCCCCCc1ccc(-c2c(C)[nH]c(=O)n2C)cc1 [compound 11]	19.4	30	
CCCCCCCCCCCCCCc1ccc(-c2c(C)[nH]c(=O)n2C)cc1 [compound 14]	43.8	30	
Cc1[nH]c(=O)n(C)c1-c1ccc(OC(C)C)cc1 [compound 17]	20.4		
CCCCOc1ccc(-c2c(C)[nH]c(=O)n2C)cc1 [compound 18]	5.1	0.3	
CCCCCOc1ccc(-c2c(C)[nH]c(=O)n2C)cc1 [compound 19]	4.5		
CCCCCCCOc1ccc(-c2c(C)[nH]c(=O)n2C)cc1 [compound 22]	5.7		
CCCCCCCCOc1ccc(-c2c(C)[nH]c(=O)n2C)cc1 [compound 23]	4	30	
CCCCCCCCCOc1ccc(-c2c(C)[nH]c(=O)n2C)cc1 [compound 24]	4.8		
CCCCCCCCCCOc1ccc(-c2c(C)[nH]c(=O)n2C)cc1 [compound 25]	6.9	0.1	
CCCCCCCCCCCCOc1ccc(-c2c(C)[nH]c(=O)n2C)cc1 [compound 26]	9.7	0.1	
CCCCCCCCCCCCCCCCCCOc1ccc(-c2c(C)[nH]c(=O)n2C)cc1 [compound 27]		0.1	
Cc1[nH]c(=O)n(C)c1-c1ccc(Oc2ccccc2)cc1 [compound 28]	8.1		
Cc1[nH]c(=O)n(C)c1-c1ccc(OCc2ccccc2)cc1 [compound 29]	6.7		
Cc1[nH]c(=O)n(C)c1-c1ccc(OCCCc2ccccc2)cc1 [compound 30]	5.9	30	
CSc1ccc(-c2c(C)[nH]c(=O)n2C)cc1 [compound 31]	39.4		
CCCCSc1ccc(-c2c(C)[nH]c(=O)n2C)cc1 [compound 32]	11.3	3	
CCCc1ccc(-c2c(C)[nH]c(=O)n2CC)cc1 [compound 54]	22.6		
CCCCc1ccc(-c2c(C)[nH]c(=O)n2CC)cc1 [compound 55]	24.5		
CCCCc1ccc(-c2c(CC)[nH]c(=O)n2CC)cc1 [compound 56]	13.9		

Compound	IC50 [1] [µM]	minimal effective dose (mice) [mg/kg]	LD50 at 168 h (Acute toxicity, oral) [mg/kg]
CCCCOc1ccc(-c2c(C)[nH]c(=O)n2CC)cc1 [compound 58]	14.5	0.3	
CCn1c(-c2ccc(OC(C)C)cc2)c(C)[nH]c1=O [compound 60]	39.1		
CCCCSc1ccc(-c2c(C)[nH]c(=O)n2CC)cc1 [compound 61]	12.9		
CCCCc1ccc(-c2c(C)[nH]c(=O)n2C(C)C)cc1 [compound 78]	10.7	0.3	
CCCCOc1ccccc1-c1c(C)[nH]c(=O)n1C(C)C [compound 80]	25.5		
Cc1[nH]c(=O)n(C2CCCCC2)c1-c1ccc(OCCC(C)C)cc1 [compound 94, 1-Cyclohexyl-5-(4'-isoamyloxyphenyl)-4-methyl-4-imidazolin-2-one]	7.2		
CCCCCCCCc1ccc(-c2c(C)[nH]c(=O)n2C2CCCCC2)cc1 [compound 101]	10.3		
CCCCCCCCCCc1ccc(-c2c(C)[nH]c(=O)n2C2CCCCC2)cc1 [compound 102]	27		
CCCc1ccc(-c2c(C)[nH]c(=O)n2C2CCCCC2)cc1 [compound 106]	13.9	30	
Cc1[nH]c(=O)n(C2CCCCC2)c1-c1cccc(OC(C)C)c1 [compound 107]	10.4		
Cc1[nH]c(=O)n(C2CCCCC2)c1-c1ccccc1OC(C)C [compound 108]	21.5		
Cc1[nH]c(=O)n(C2CCCCC2)c1-c1ccc(OC(C)C)cc1 [compound 109]	13	0.1	
CCCCOc1cccc(-c2c(C)[nH]c(=O)n2C2CCCCC2)c1 [compound 110]	9		
CCCCOc1ccc(-c2c(C)[nH]c(=O)n2C2CCCCC2)cc1 [compound 111]	13.9	0.1	
CCCCCOc1ccc(-c2c(C)[nH]c(=O)n2C2CCCCC2)cc1 [compound 112]	9.1		
Cc1[nH]c(=O)n(Cc2ccccc2)c1-c1ccc(C(C)(C)C)cc1 [compound 138]	8.6		
CCCCCCc1ccc(-c2c(C)[nH]c(=O)n2Cc2ccccc2)cc1 [compound 139]	8.2		
Cc1[nH]c(=O)n(Cc2ccccc2)c1-c1ccc(C2CCCCC2)cc1 [compound 140]	35.3		
Cc1[nH]c(=O)n(Cc2ccccc2)c1-c1ccc(-c2ccccc2)cc1 [compound 141]	7.9	0.1	
CCCCOc1ccc(-c2c(C)[nH]c(=O)n2Cc2ccccc2)cc1 [compound 142]	12.8	0.3	

Reference: US5116858A, “4-imidazoline derivatives” (Mitsubishi Kasei Corporation, priority 1989, dated 1992)
